The text below walks through data of patent EP4711366A1, “PYRIMIDO MACROHETEROCYCLIC COMPOUND AS WEE1-YES DUAL-TARGET INHIBITOR AND USE THEREOF” (Mindrank AI Ltd., priority 2023, dated 2024).

The target in one assay is Wee1 kinase (Homo sapiens, UniProt P30291). Description: WEE1 protein kinase inhibitory activity assay (ADP-GLO luminescence). Type of assay: biochemical. Conditions: for IC50: Wee1 10 ng/well, ATP 10 µM, 3 h, 37 °C; for inhibition of the Weel target (in words): summary statement on the assay results. The method, then: The influence of the compound MRANK-106 of the present disclosure on the kinase activity of Weel was assessed using an in vitro kinase reaction system.
Wee1 kinase, sequence (P30291 whole entry): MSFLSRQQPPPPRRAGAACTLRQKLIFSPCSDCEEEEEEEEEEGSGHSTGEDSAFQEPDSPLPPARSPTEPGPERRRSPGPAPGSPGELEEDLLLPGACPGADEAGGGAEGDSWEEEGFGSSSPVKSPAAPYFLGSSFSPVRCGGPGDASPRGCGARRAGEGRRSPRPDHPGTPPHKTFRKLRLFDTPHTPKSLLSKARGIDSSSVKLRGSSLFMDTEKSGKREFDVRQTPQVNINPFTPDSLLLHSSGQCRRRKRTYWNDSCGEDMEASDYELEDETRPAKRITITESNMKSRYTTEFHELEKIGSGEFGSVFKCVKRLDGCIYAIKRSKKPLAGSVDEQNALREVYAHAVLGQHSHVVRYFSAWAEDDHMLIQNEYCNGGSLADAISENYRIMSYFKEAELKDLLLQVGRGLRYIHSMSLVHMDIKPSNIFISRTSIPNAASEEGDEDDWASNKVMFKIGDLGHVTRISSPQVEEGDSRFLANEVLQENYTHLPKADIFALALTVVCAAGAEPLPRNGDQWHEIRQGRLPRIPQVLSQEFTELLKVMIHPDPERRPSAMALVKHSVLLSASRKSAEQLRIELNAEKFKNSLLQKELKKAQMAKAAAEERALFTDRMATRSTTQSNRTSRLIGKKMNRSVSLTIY
Table 2-1. Information about reagents and consumables
① 1× kinase buffer: A 5× kinase buffer was diluted with ddH2O to make a 1× kinase buffer. Table 2-3. The reagent components added to the 1× kinase buffer
③ 5× enzyme working solution: The optimization of the enzyme concentration had been completed in previous work, and the concentration of the reagent used in the screening is shown in Table 2-4. A 5× enzyme working solution of the enzyme was formulated using the 1× kinase buffer.
④ Compound formulation: A 10 mM mother liquor was formulated using DMSO, aliquoted, and then stored at -20 °C. Immediately before use, the mother liquor was thawed, diluted with DMSO to 1 mM, serially diluted 4-fold to 10 concentration points, and then 40-fold diluted with the 1× kinase buffer to give a 2.5× working solution. Table 2-4. The experimental conditions for the kinase activity assay
After the above reagents were formulated and equilibrated to room temperature, 4 µL of the diluted solution of the compound to be tested and 2 µL of the formulated enzyme solution were added to reaction wells. After shaking and centrifugation, the plate was incubated at room temperature for 15 min, and 4 µL of the ATP solution was then added to start a kinase reaction. After 3 h of reaction at 37 °C, 10 µL of an ADP-GLO reagent was added. After thorough mixing, the mixture was left to react at room temperature for 40 min, and 20 µL of a detection reagent was then added. After 30 min of reaction at room temperature, the luminescence signals were detected using a SpectraMax L instrument. Two independent duplicate assays were performed. The inhibition rate of each well was calculated based on all activity wells and background signal wells, with an average calculated for duplicate wells. Meanwhile, the inhibition rate was plotted using the professional graphing and analysis software PRISM 9.0, and the IC50 was calculated.
The inhibition rates of the compounds to be tested against the kinase activity of Wee1 were calculated using the following formula: Inhibition rate% = (Lumvehicle−Lumcompound)/(Lumvehicle−Lumblank) × 100% [formula] • Lumcompound: the luminescence of the sample treatment groups • Lumvehicle: the luminescence of the solvent control group • Lumblank: the luminescence of the blank group
(ADP-Glo turns the ADP formed in a reaction into a luminescent signal.)

For a further assay, the target named is YES1 kinase (Homo sapiens, UniProt P07947). Description: YES1 protein kinase inhibitory activity assay (HTRF). Type of assay: biochemical. Conditions: for IC50: HTRF, YES1 kinase, ATP 10 µM; for inhibition of the Yes target (in words): summary statement on the assay results. On the procedure: In this experiment, the capability of the compound MRANK-106 of the present disclosure to inhibit kinase activity was assessed by an HTRF method using a drug screening system based on the YES1 kinase.
YES1 kinase, sequence (P07947 whole entry): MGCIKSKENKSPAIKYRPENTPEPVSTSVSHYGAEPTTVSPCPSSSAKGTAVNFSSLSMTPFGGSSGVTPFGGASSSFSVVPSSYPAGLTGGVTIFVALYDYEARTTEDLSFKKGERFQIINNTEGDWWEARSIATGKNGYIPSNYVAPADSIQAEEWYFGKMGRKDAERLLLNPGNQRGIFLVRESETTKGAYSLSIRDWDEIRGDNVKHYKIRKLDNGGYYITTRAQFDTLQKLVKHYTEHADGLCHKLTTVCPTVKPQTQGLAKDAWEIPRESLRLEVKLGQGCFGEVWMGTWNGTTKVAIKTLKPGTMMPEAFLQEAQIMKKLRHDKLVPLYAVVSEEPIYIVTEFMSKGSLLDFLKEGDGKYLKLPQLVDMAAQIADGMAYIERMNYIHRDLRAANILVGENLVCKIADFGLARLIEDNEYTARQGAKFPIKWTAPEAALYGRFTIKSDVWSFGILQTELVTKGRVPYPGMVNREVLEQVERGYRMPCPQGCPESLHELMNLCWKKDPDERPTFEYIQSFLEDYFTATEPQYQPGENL
Table 3-1. Information about reagents and consumables
The enzymatic activity conditions and HTRF system formulation are shown in Table 3-3; the experimental conditions for the kinase activity assay are shown in Table 3-4. Table 3-3. HTRF system formulation
Table 3-4. The experimental conditions for the kinase activity assay
The test compound MRANK-106 was dissolved in DMSO, and the solution was vortexed and shaken for thorough mixing. The solution was serially diluted 3-fold with DMSO, with the initial concentration being 503 nM.
① A 2× ATP/substrate solution and a 2× kinase solution were formulated using a kinase reaction buffer.
② 50 nL of the compound dilution was transferred to a 384 detection plate using Echo 655. After centrifugation, 2.5 µL of a 2× kinase solution was added to the 384 detection plate. The plate was centrifuged at 1000 rpm for 1 min and incubated at 25 °C for 10 min.
② 2.5 µL of the 2× substrate and ATP solution was added to the 384 detection plate, and the plate was centrifuged at 1000 rpm for 1 min and incubated at 25 °C for 60 min.
④ A 2× XL665 and antibody detection reagent was formulated using a detection buffer.
⑤ 5 µL of a kinase detection reagent was added to the detection plate, and the plate was incubated at 25 °C. The plate was centrifuged at 1000 rpm for 1 min and incubated at 25 °C for 1 h.
⑥ The fluorescence signals at 620 nm (Cryptate) and 665 nm (XL665) were read using a BMG high-throughput drug-screening multi-mode microplate reader.
With the reading of the negative control set as an inhibition rate of 0% and the reading of the positive control set as an inhibition rate of 100%, the inhibition rate of each test solution was calculated using the following formula: [formula] • Datapositive control: the average of the positive control well values • Datanegative control : the average of the negative control well values
The IC50 (half maximal inhibitory concentration) of the compound was obtained using the following nonlinear fitting formulas: Y = Bottom + (Top−Bottom)/(1+10^(∧)((LogIC50−X)*HillSlope)) [formula] • X: the log value of the compound concentration • Y: the inhibition rate (% inh) of the compound
The Z' factor calculation equation: Z′ = 1−3(SDmin+SDmax)/(AVEmax−AVEmin) [formula] where: • Min is the positive control Data value, and Max is the negative control DMSO Data value; • SD stands for standard deviation, and AVE stands for average.

As to `[2H]C([2H])([2H])N1CCC(Oc2ccc(Nc3ncc4c(=O)n5n(c4n3)-c3cccc(n3)[C@@](C)(O)CCC=CC5)cc2C)CC1` (single isomer, unassigned) [Compound 171B], the results for the IC50 against Wee1 kinase and on YES1 kinase were 5.4 nM and 346 nM, respectively.

The compound `Cc1cc(Nc2ncc3c(=O)n4n(c3n2)-c2cccc(n2)C(C)(O)CC/C=C\C4)ccc1CN1CCN(C)CC1` (single isomer, unassigned) [Compound 219A] displayed an IC50 against Wee1 kinase of 13.1 nM.

`Cc1cc(Nc2ncc3c(=O)n4n(c3n2)-c2cccc(n2)C(C)(O)CC/C=C\C4)ccc1OC1CC2CN(C)CC2C1` (single isomer, unassigned) [Compound 224A]: inhibition against Wee1 kinase was half-maximal at 12.8 nM (IC50).

The compound `Cc1cc(Nc2ncc3c(=O)n4n(c3n2)-c2cccc(n2)C(C)(O)CCC=CC4)ccc1NC1CC2CCC(C1)N2C` (single isomer, unassigned) [Compound 225A] displayed a half-inhibitory concentration (IC50) against Wee1 kinase of 20.4 nM.

`Cc1cc(Nc2ncc3c(=O)n4n(c3n2)-c2cccc(n2)[C@@](C)(O)CCCCC4)ccc1OC1CCN(C)CC1` [Compound 29, (S)-12-hydroxy-12-methyl-2-((3-methyl-4-((1-methylpiperidin-4-yl)oxy)phenyl)amino)-7,8,9,10,11,12-hexahydro-5H-13,17-(azeno)pyrimido[4',5':3,4]pyrazolo[1,2-a][1,2]diazacyclotridecin-5-one] displayed an IC50 on Wee1 kinase of 67 nM.

`Cc1cc(Nc2ncc3c(=O)n4n(c3n2)-c2cccc(n2)[C@@](C)(O)CCC=CC4)ccc1OC1CCN(C)CC1` [Compound 134, (S,Z)-12-hydroxy-12-methyl-2-((3-methyl-4-((1-methylpiperidin-4-yl)oxy)phenyl)amino)-7,10,11,12-tetrahydro-5H-13,17-(azeno)pyrimido[4',5':3,4]pyrazolo[1,2-a][1,2]diazacyclotridecin-5-one]: at Wee1 kinase, half-maximal inhibition (IC50) required 21 nM and the “inhibition of the Weel target (in words)” value is “strongly inhibited”. Besides, at YES1 kinase, the IC50 came out at 68.9 nM and the “inhibition of the Yes target (in words)” value is reported as “strongly inhibited”.

On to `CCOP1(=O)CCN(c2ccc(Nc3ncc4c(=O)n5n(c4n3)-c3cccc(n3)C(C)(O)CCC=CC5)cc2F)CC1` (stereo not drawn) [Compound 180, (Z)-2-((4-(4-ethoxy-4-oxido-1,4-azaphosphinan-1-yl)-3-fluorophenyl)amino)-12-hydroxy-12-methyl-7,10,11,12-tetrahydro-5H-13,17-(azeno)pyrimido[4',5':3,4]pyrazolo[1,2-a][1,2]diazacyclotridecin-5-one], for which the “inhibition of the Weel target (in words)” value at Wee1 kinase is given as “strongly inhibited”. In addition, on YES1 kinase, the IC50 is 52.5 nM and the “inhibition of the Yes target (in words)” value is on record as “strongly inhibited”.

Turning to `CCOP1(=O)CCN(c2ccc(Nc3ncc4c(=O)n5n(c4n3)-c3cccc(n3)C(C)(O)CCC=CC5)cc2)CC1` (stereo not drawn) [Compound 181, (Z)-2-((4-(4-ethoxy-4-oxido-1,4-azaphosphinan-1-yl)phenyl)amino)-12-hydroxy-12-methyl-7,10,11,12-tetrahydro-5H-13,17-(azeno)pyrimido[4',5':3,4]pyrazolo[1,2-a][1,2]diazacyclotridecin-5-one], the IC50 at Wee1 kinase worked out at 33.2 nM; against YES1 kinase, 117 nM.

In the case of `Cc1cc(Nc2ncc3c(=O)n4n(c3n2)-c2cccc(n2)C(C)(O)CC/C=C\C4)ccc1O[C@@H]1CCN(C)C1` (stereo partly drawn) [Compound 183, (R,Z)-12-hydroxy-12-methyl-2-((3-methyl-4-(((R)-1-methylpyrrolidin-3-yl)oxy)phenyl)amino)-7,10,11,12-tetrahydro-5H-13,17-(azeno)pyrimido[4',5':3,4]pyrazolo[1,2-a][1,2]diazacyclotridecin-5-one], the IC50 at Wee1 kinase stood at 16.1 nM.

The compound `CN1CCN(C(=O)c2ccc(Nc3ncc4c(=O)n5n(c4n3)-c3cccc(n3)C(C)(O)CC/C=C\C5)cc2)CC1` [Compound 185, (R,Z)-12-hydroxy-12-methyl-2-((4-(4-methylpiperazine-1-carbonyl)phenyl)amino)-7,10,11,12-tetrahydro-5H-13,17-(azeno)pyrimido[4',5':3,4]pyrazolo[1,2-a][1,2]diazacyclotridecin-5-one] registered an IC50 against YES1 kinase of 129 nM.

In the case of `Cc1cc(Nc2ncc3c(=O)n4n(c3n2)-c2cccc(n2)C(C)(O)CC/C=C\C4)ccc1O[C@H]1CCN(C)C1` (stereo partly drawn) [Compound 186, (R,Z)-12-hydroxy-12-methyl-2-((3-methyl-4-(((S)-1-methylpyrrolidin-3-yl)oxy)phenyl)amino)-7,10,11,12-tetrahydro-5H-13,17-(azeno)pyrimido[4',5':3,4]pyrazolo[1,2-a][1,2]diazacyclotridecin-5-one], the IC50 at Wee1 kinase stood at 18.7 nM.

As for `Cc1cc(Nc2ncc3c(=O)n4n(c3n2)-c2cccc(n2)C(C)(O)CCC=CC4)ccc1CN1CCN(C)CC1=O` (stereo not drawn) [Compound 199, (Z)-12-hydroxy-12-methyl-2-((3-methyl-4-((4-methyl-2-oxopiperazin-1-yl)methyl)phenyl)amino)-7,10,11,12-tetrahydro-5H-13,17-(azeno)pyrimido[4',5':3,4]pyrazolo[1,2-a][1,2]diazacyclotridecin-5-one], at Wee1 kinase, the “inhibition of the Weel target (in words)” value was “strongly inhibited”. At YES1 kinase, the IC50 stood at 59.1 nM and the “inhibition of the Yes target (in words)” value is “strongly inhibited”.

In turn, `Cc1cc(Nc2ncc3c(=O)n4n(c3n2)-c2cccc(n2)C(C)(O)CCC=CC4)ccc1OC1CCN(CC(F)(F)F)CC1` (stereo not drawn) [Compound 206, (Z)-12-hydroxy-12-methyl-2-((3-methyl-4-((1-(2,2,2-trifluoroethyl)piperidin-4-yl)oxy)phenyl)amino)-7,10,11,12-tetrahydro-5H-13,17-(azeno)pyrimido[4',5':3,4]pyrazolo[1,2-a][1,2]diazacyclotridecin-5-one] came in with an IC50 against YES1 kinase of 130 nM.

Consider `CN1CC2CC(Oc3ccc(Nc4ncc5c(=O)n6n(c5n4)-c4cccc(n4)C(C)(O)CCC=CC6)cc3C(F)(F)F)CC2C1` (stereo not drawn) [Compound 223, (Z)-12-hydroxy-12-methyl-2-((4-((2-methyloctahydrocyclopenta[c]pyrrol-5-yl)oxy)-3-(trifluoromethyl)phenyl)amino)-7,10,11,12-tetrahydro-5H-13,17-(azeno)pyrimido[4',5':3,4]pyrazolo[1,2-a][1,2]diazacyclotridecin-5-one], for which, at Wee1 kinase, the IC50 stood at 18.7 nM and the “inhibition of the Weel target (in words)” value is recorded as “strongly inhibited”. In addition, at YES1 kinase, the IC50 stood at 21.8 nM and the “inhibition of the Yes target (in words)” value is listed as “strongly inhibited”.

On to `CN(C)S(=O)(=O)c1ccc2c(c1)/C(=C/c1cc3c([nH]1)CCCC3)C(=O)N2` [SU6656], for which the IC50 on YES1 kinase stood at 43 nM.

The term IC50 denotes the point on the concentration scale where inhibition reaches its midpoint. Low values mean greater potency, high ones weaker potency.
